One block for each compound: values may come before it. The source made the active and inactive calls. The rule behind the calls is not given here.
Tests used:
Format in all cases: functional, cell-based
[1] = target: T1, Free fatty acid receptor 3 (Homo sapiens) (UniProt O14843); experiment: Antagonist activity at doxycyclin-induced GPR41 (unknown origin) overexpressed in HEK293 cells assessed as increase in forskolin/propionate-induced cAMP level at 1 uM
T1 sequence (whole entry): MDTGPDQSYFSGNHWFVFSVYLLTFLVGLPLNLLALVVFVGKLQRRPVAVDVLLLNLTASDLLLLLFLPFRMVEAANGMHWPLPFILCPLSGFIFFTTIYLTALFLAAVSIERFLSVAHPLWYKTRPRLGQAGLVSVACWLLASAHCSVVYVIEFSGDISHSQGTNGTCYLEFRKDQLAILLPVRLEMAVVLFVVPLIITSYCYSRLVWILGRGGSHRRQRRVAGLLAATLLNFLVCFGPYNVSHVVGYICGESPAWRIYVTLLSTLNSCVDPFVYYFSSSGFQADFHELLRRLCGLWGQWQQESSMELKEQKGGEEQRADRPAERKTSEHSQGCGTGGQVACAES

[2] = target: T1, Free fatty acid receptor 3 (Homo sapiens); experiment: Agonist activity at GPR41 (unknown origin) overexpressed in HEK293 cells assessed as decrease in forskolin-induced cAMP level
[3] = target: T1, Free fatty acid receptor 3 (Homo sapiens); experiment: Agonist activity at doxycyclin-induced GPR41 (unknown origin) overexpressed in HEK293 cells assessed as decrease in forskolin-induced cAMP level at 30 uM
[4] = target: T1, Free fatty acid receptor 3 (Homo sapiens); experiment: Agonist activity at doxycyclin-induced GPR41 (unknown origin) overexpressed in HEK293 cells assessed as decrease in forskolin-induced cAMP level at 1 uM
[5] = target: T2, Free fatty acid receptor 3 (Homo sapiens, UniProt O14843); experiment: Agonist activity at doxycyclin-induced GPR41 (unknown origin) overexpressed in HEK293 cells assessed as decrease in forskolin-induced cAMP level
T2 sequence (O14843 whole entry): T1 sequence (whole entry)

[6] = target: T3, Free fatty acid receptor 2 (Homo sapiens) (UniProt O15552); experiment: Agonist activity at GPR43 (unknown origin) overexpressed in HEK293 cells assessed as decrease in forskolin-induced cAMP level at 1 uM
T3 sequence (whole entry): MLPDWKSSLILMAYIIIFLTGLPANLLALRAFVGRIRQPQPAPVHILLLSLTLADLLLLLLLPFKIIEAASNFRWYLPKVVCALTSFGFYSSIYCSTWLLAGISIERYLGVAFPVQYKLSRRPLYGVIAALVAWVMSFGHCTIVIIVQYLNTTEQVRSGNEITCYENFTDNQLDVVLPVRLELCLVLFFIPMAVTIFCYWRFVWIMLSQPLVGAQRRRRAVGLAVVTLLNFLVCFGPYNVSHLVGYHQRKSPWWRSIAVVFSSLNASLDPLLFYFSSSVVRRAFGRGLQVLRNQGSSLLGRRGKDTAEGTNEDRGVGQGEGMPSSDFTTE

[7] = target: T1, Free fatty acid receptor 3 (Homo sapiens); experiment: Agonist activity at doxycyclin-induced GPR41 (unknown origin) overexpressed in HEK293 cells assessed as decrease in forskolin-induced cAMP level at 10 uM; conditions: filed as agonist

SMILES: CC1=C(C(=O)Nc2ccccc2C)C(c2ccc(-c3ccsc3)o2)C2=C(CCCC2=O)N1 (stereo unspecified)
- Activity [1]: inactive

SMILES: CC1=C(C(=O)Nc2ccccc2C)C(c2ccc(-c3ccccc3C#N)o2)C2=C(CCCC2=O)N1 (stereo unspecified)
- Activity [1]: inactive

SMILES: CC1=C(C(=O)Nc2ccccc2C)C(c2ccc(-c3ccccc3Cl)o2)C2=C(CCCC2=O)N1 (stereo unspecified)
- Activity [1]: inactive

SMILES: CC1=C(C(=O)Nc2ccccc2C)C(c2ccc(-c3cc(Cl)cc(Cl)c3)o2)C2=C(CCCC2=O)N1 (stereo unspecified)
- Activity [4]: inactive

SMILES: CC1=C(C(=O)Nc2ccccc2C)C(c2ccc(-c3cccc(C(F)(F)F)c3)o2)C2=C(CCCC2=O)N1 (stereo unspecified)
- Activity [1]: inactive

SMILES: CC1=C(C(=O)Nc2cc(Cl)ccc2Cl)C(c2ccc(-c3ccc(F)c(F)c3)o2)C2=C(CCCC2=O)N1 (stereo unspecified)
- Activity [2]: inactive
- Activity [3]: inactive

SMILES: CC1=C(C(=O)Nc2cc(Cl)ccc2Cl)C(c2ccc(-c3ccc(F)c(F)c3F)o2)C2=C(CCCC2=O)N1 (stereo unspecified)
- EC50 [5]: 447 nM
- Activity [2]: inactive
- Activity [6]: inactive

SMILES: CC1=C(C(=O)Nc2ccccc2C)C(c2ccc(-c3ccc(C)cc3)o2)C2=C(CCCC2=O)N1 (stereo unspecified)
- Activity [1]: inactive

SMILES: CCC(=O)O
- Activity [1]: inactive
- Activity ([6]; filed as agonist): Active

SMILES: CC1=C(C(=O)Nc2ccccc2C)C(c2ccc(-c3ccc(F)c(F)c3F)o2)C2=C(CCCC2=O)N1 (stereo unspecified)
- Activity ([4]; filed as agonist): Active
- EC50 [5]: 5510 nM
- Activity [2]: inactive
- Activity [6]: inactive

SMILES: COc1cc(OC)cc(-c2ccc(C3C(C(=O)Nc4ccccc4C)=C(C)NC4=C3C(=O)CCC4)o2)c1 (stereo unspecified)
- Activity [1]: inactive

SMILES: CC1=C(C(=O)Nc2ccccc2C)C(c2ccc(-c3cccc(F)c3)o2)C2=C(CCCC2=O)N1 (stereo unspecified)
- Activity [1]: inactive

SMILES: CC1=C(C(=O)Nc2ccccc2C)C(c2ccc(-c3cc(F)cc(F)c3)o2)C2=C(CCCC2=O)N1 (stereo unspecified)
- Activity [1]: inactive
- Activity ([4]; filed as agonist): Active
- EC50 [5]: 679 nM
- Activity [2]: inactive
- Activity [6]: inactive

SMILES: CC1=C(C(=O)Nc2ccccc2C)C(c2ccc(-c3ccc(F)c(F)c3)o2)C2=C(CCCC2=O)N1 (stereo unspecified)
- Activity ([4]; filed as agonist): Active
- EC50 [5]: 3400 nM
- Activity [2]: inactive
- Activity [6]: inactive

SMILES: CC1=C(C(=O)Nc2ccccc2C)C(c2ccc(-c3ccccc3)o2)C2=C(CCCC2=O)N1 (stereo unspecified)
- Activity [1]: inactive
- Activity [7]: Active

SMILES: CC1=C(C(=O)Nc2ccccc2C)C(c2ccc(-c3ccc(F)cc3)o2)C2=C(CCCC2=O)N1 (stereo unspecified)
- Activity [1]: inactive

SMILES: CC1=C(C(=O)Nc2ccccc2C)C(c2ccc(-c3ccc(Cl)cc3)o2)C2=C(CCCC2=O)N1 (stereo unspecified)
- Activity [1]: inactive

SMILES: CC1=C(C(=O)Nc2cc(Cl)ccc2Cl)C(c2ccco2)C2=C(CCCC2=O)N1 (stereo unspecified)
- Activity [1]: inactive
- EC50 [5]: 741 nM
- Activity [6]: inactive

SMILES: CC1=C(C(=O)Nc2ccccc2C)C(c2ccc(-c3ccc(F)cc3F)o2)C2=C(CCCC2=O)N1 (stereo unspecified)
- Activity ([4]; filed as agonist): Active

More lines, now with the values ahead:

- Activity [2]: inactive
- Activity [3]: inactive
SMILES: CC1=C(C(=O)Nc2cc(Cl)ccc2Cl)C(c2ccc(-c3cc(F)cc(F)c3)o2)C2=C(CCCC2=O)N1 (stereo unspecified)

- Activity ([1]; filed as antagonist): Active
SMILES: CC1=C(C(=O)Nc2ccccc2C)C(c2ccc(-c3ccccc3OC(F)(F)F)o2)C2=C(CCCC2=O)N1 (stereo unspecified)

- Activity [1]: inactive
SMILES: CC1=C(C(=O)Nc2ccccc2C)C(c2ccc(-c3ccco3)o2)C2=C(CCCC2=O)N1 (stereo unspecified)

- Activity [1]: inactive
SMILES: CC1=C(C(=O)Nc2ccccc2C)C(c2ccc(-c3cc(C(F)(F)F)cc(C(F)(F)F)c3)o2)C2=C(CCCC2=O)N1 (stereo unspecified)

- Activity [1]: inactive
SMILES: CC1=C(C(=O)Nc2ccccc2C)C(c2ccc(-c3cccc(Cl)c3)o2)C2=C(CCCC2=O)N1 (stereo unspecified)

- Activity [2]: inactive
- Activity [3]: inactive
SMILES: CC1=C(C(=O)Nc2cc(Cl)ccc2Cl)C(c2ccc(-c3cc(F)c(F)c(F)c3)o2)C2=C(CCCC2=O)N1 (stereo unspecified)

- Activity [1]: inactive
SMILES: CC1=C(C(=O)Nc2ccccc2C)C(c2ccc(-c3ccccc3F)o2)C2=C(CCCC2=O)N1 (stereo unspecified)

- Activity [1]: inactive
SMILES: CC1=C(C(=O)Nc2ccccc2C)C(c2ccc(-c3ccccc3C(F)(F)F)o2)C2=C(CCCC2=O)N1 (stereo unspecified)

- Activity [4]: inactive
SMILES: CC1=C(C(=O)Nc2ccccc2C)C(c2ccc(-c3c(F)cccc3F)o2)C2=C(CCCC2=O)N1 (stereo unspecified)

- Activity [1]: inactive
- Activity ([4]; filed as agonist): Active
SMILES: CC1=C(C(=O)Nc2ccccc2C)C(c2ccc(-c3ccc(C(F)(F)F)cc3)o2)C2=C(CCCC2=O)N1 (stereo unspecified)

- Activity ([4]; filed as agonist): Active
- EC50 [5]: 5890 nM
- Activity [2]: inactive
- Activity [6]: inactive
SMILES: CC1=C(C(=O)Nc2ccccc2C)C(c2ccc(-c3cc(F)c(F)c(F)c3)o2)C2=C(CCCC2=O)N1 (stereo unspecified)

- Activity [1]: inactive
SMILES: CC1=C(C(=O)Nc2ccccc2C)C(c2ccc(-c3cccc(C#N)c3)o2)C2=C(CCCC2=O)N1 (stereo unspecified)

- Activity [1]: inactive
SMILES: CC1=C(C(=O)Nc2ccccc2C)C(c2ccc(-c3cc(C)cc(C)c3)o2)C2=C(CCCC2=O)N1 (stereo unspecified)

- Activity [1]: inactive
SMILES: COc1cccc(-c2ccc(C3C(C(=O)Nc4ccccc4C)=C(C)NC4=C3C(=O)CCC4)o2)c1 (stereo unspecified)
